# Assay results: publication PMC2360237, “A phase Ib study of pertuzumab, a recombinant humanised antibody to HER2, and docetaxel in patients with advanced solid tumours” (British Journal of Cancer, 2007)
# Read-outs that look alike come from different tables or passages of the source.
# Tests used:
# [1] = Docetaxel plasma pharmacokinetics (LC-MS/MS, non-compartmental) alone and with pertuzumab in phase Ib patients; type: in vivo, human; details: for AUC(0-inf) / Cmax / half-life: human, plasma, intravenous; for AUC(0-inf): read-out: AUC0-∞ mean (range); for Cmax: read-out: Cmax mean (range); for half-life: read-out: t1/2 mean (range) (converted)
# Experimental: (§1) In the first treatment cycle, blood withdrawal for PK analysis was performed 15 and 30 min prior to administration of docetaxel and 15 and 30 min and 1, 2, 4, 8 and 23 h, post administration. Pertuzumab was administered at least 24 h after, on day 2, followed by PK analysis at 15 min and 1.5, 4 and 8 h. In the second cycle, pertuzumab was administered on day 1, immediately followed by the administration of docetaxel and sampling for PK analysis was repeated for both drugs. Plasma samples of docetaxel were analysed using a validated specific liquid chromatography-mass spectrometry (LC-MS/MS) method as described previously ([Agus et al, 2005]). Serum samples were assayed for pertuzumab concentrations using a receptor-binding, enzyme-linked immunosorbent assay. The assay uses immobilised antigen p185^HER2 ECD to capture pertuzumab from serum samples. Bound pertuzumab was detected with mouse anti-human Fc-horseradish peroxidase (Jackson ImmunoResearch Laboratories Inc., West Grove, PA, USA), and tetramethyl benzidine (KPL Inc., Gaithersburg, MD, USA) used as the substrate for colour development to quantify serum pertuzumab against a known standard curve. The assay has a minimum quantifiable concentration of 0.25 μg ml^−1 for pertuzumab in human serum. Pharmacokinetic parameters for docetaxel and pertuzumab were estimated using non-compartmental methods (WinNonLin software version 5.0.1).
# [2] = test system: patients with advanced solid tumours
# Experimental: This was a phase Ib, open-label, two-center study. […] Pertuzumab was provided by F Hoffmann-La Roche (Basel, Switzerland). Each 10 ml single-use vial contained 175 mg of pertuzumab formulated in 10 mmol l^−1 L-histidine (pH6.0), 240 mmol l^−1 sucrose, and 0.02% polysorbate 20. The first dose of pertuzumab was given by intravenous infusion over 90 min. […] Initially, the planned dose of pertuzumab was fixed dose at 1050 mg for each dose level. […] The dose of docetaxel was sequentially escalated from 60 to 75 to 100 mg m^−2 as outlined in Table 1. […] Initially, three patients were treated in cohort 1, with the first patient being monitored for at least 2 weeks before additional patients were treated. Escalation to a new dose level was permitted when at least two of three patients had been evaluated for 3 weeks. […] At least six patients were to be treated at the 75 and 100 mg m^−2 dose levels before a recommended phase II dose was declared. […]
# The incidence and severity of all adverse events, changes in vital signs, laboratory assessments, physical examination findings, and medical conditions during and after treatment with pertuzumab were assessed at least weekly during the first two cycles, and at least weekly three times thereafter, and graded according to NCI-CTC Version 3. […]
# [3] = test system: refractory ovarian cancer; HRPC; details: cited from earlier work
# [4] = test system: patients with advanced cancer; details: cited from earlier work
# [5] = Pertuzumab serum pharmacokinetics (receptor-binding ELISA, non-compartmental) in phase Ib patients; details: for AUC0-last mean (range) / AUC0-∞ mean (range) / Cl mean (range) / Cmax mean (range) / Vss mean (range): serum
# Experimental: as §1
# [6] = Cohort 1, docetaxel 60 mg m^−2 + pertuzumab 1050 mg, cycle 2, n=6, plasma
# [7] = Cohort 1, docetaxel 60 mg m^−2 alone, cycle 1, n=6, plasma
# [8] = Cohort 2A, docetaxel 75 mg m^−2 + pertuzumab 420 mg, cycle 2, n=6, plasma
# [9] = Cohort 2A, docetaxel 75 mg m^−2 alone, cycle 1, n=6, plasma
# [10] = Cohort 3A, docetaxel 100 mg m^−2 + pertuzumab 420 mg, cycle 2, n=4, plasma
# [11] = Cohort 3A, docetaxel 100 mg m^−2 alone, cycle 1, n=5, plasma
# [12] = 60 mg m^−2, Cohort 1, docetaxel 60 mg m^−2 alone, cycle 1, n=6, plasma
# [13] = 75 mg, Cohort 2A, docetaxel 75 mg m^−2 alone, cycle 1, n=6, plasma
# [14] = 100 mg, Cohort 3A, docetaxel 100 mg m^−2 alone, cycle 1, n=5, plasma
# [15] = pertuzumab 420 mg, cycle 2, n=10, in combination with docetaxel
# [16] = pertuzumab 840 mg (loading dose), cycle 1, n=11, in combination with docetaxel
# [17] = pertuzumab 1050 mg, cycle 1, n=8, in combination with docetaxel
# [18] = pertuzumab 1050 mg, cycle 2, n=7, in combination with docetaxel
molecule,measurement,setting,value
"CC(=O)O[C@@]12CO[C@@H]1C[C@H](O)[C@@]1(C)C(=O)[C@H](O)C3=C(C)[C@@H](OC(=O)[C@H](O)[C@@H](NC(=O)OC(C)(C)C)c4ccccc4)C[C@@](O)([C@@H](OC(=O)c4ccccc4)[C@H]21)C3(C)C [docetaxel, Docetaxel]",Cl mean (range),[1]; [6],36 (23–40) × 10^3 ml h m^−2
same,Vss mean (range),[1]; [6],102 (64–154) × 10^4 ml m^−2
same,Cl mean (range),[1]; [7],33 (28–39) × 10^3 ml h m^−2
same,Vss mean (range),[1]; [7],79 (42–100) × 10^4 ml m^−2
same,Cl mean (range),[1]; [8],24 (15–34) × 10^3 ml h m^−2
same,Vss mean (range),[1]; [8],57 (20–110) × 10^4 ml m^−2
same,Cl mean (range),[1]; [9],22 (13–31) × 10^3 ml h m^−2
same,Vss mean (range),[1]; [9],41 (18–70) × 10^4 ml m^−2
same,Cl mean (range),[1]; [10],22 (12–41) × 10^3 ml h m^−2
same,Vss mean (range),[1]; [10],43 (16–76) × 10^4 ml m^−2
same,Cl mean (range),[1]; [11],18 (12–28) × 10^3 ml h m^−2
same,Vss mean (range),[1]; [11],25 (16–32) × 10^4 ml m^−2
same,"Pharmacokinetic drug–drug interaction (Cmax, AUC and clearance of docetaxel alone vs in combination with pertuzumab)",[1]; cycle 1 alone vs cycle 2 combined,no drug–drug interaction
same,AUC(0-inf),[1]; [12],1840 ng·h/mL
same,Cmax,[1]; [12],1640 ng/mL
same,half-life,[1]; [12],16.9 h
same,AUC(0-inf),[1]; [13],3740 ng·h/mL
same,Cmax,[1]; [13],3130 ng/mL
same,half-life,[1]; [13],12.7 h
same,AUC(0-inf),[1]; [14],5930 ng·h/mL
same,Cmax,[1]; [14],5450 ng/mL
same,half-life,[1]; [14],9.59 h
same,AUC(0-inf),[1]; [6],1730 ng·h/mL
same,Cmax,[1]; [6],1700 ng/mL
same,half-life,[1]; [6],19.7 h
same,AUC(0-inf),[1]; [8],3500 ng·h/mL
same,Cmax,[1]; [8],2720 ng/mL
same,half-life,[1]; [8],15.2 h
same,AUC(0-inf),[1]; [10],5220 ng·h/mL
same,Cmax,[1]; [10],4700 ng/mL
same,half-life,[1]; [10],12.8 h
same,Recommended phase II dose of docetaxel in the combination,"[2]; with pertuzumab 420 mg following a loading dose of 840 mg, intravenously every 3 weeks",75 mg m^−2
"pertuzumab: fully humanised monoclonal antibody, which acts by blocking the association of HER2 with other HER family members",Anti-tumour activity,"[3]; single-agent pertuzumab, refractory ovarian cancer, ref Gordon et al, 2006",Significant anti-tumour activity
same,Anti-tumour activity,"[3]; single-agent phase II study, HRPC, ref De Bono et al, 2007",no evidence of anti-tumour activity
same,Terminal elimination half-life,[4]; in vivo,2–4 weeks
same,Tolerability,[4]; in vivo,well tolerated
same,Maximum tolerated dose,"[4]; single-agent pertuzumab, phase I studies, not reached, ref Agus et al, 2005",> 15 mg/kg
same,PK parameters of pertuzumab in the presence of docetaxel compared with single agent,"[5]; 1050 mg cycles 1 and 2, 840 mg cycle 1 and 420 mg cycle 2",comparable with single agent values
same,AUC0-last mean (range),[5]; [15],1491 (914–2289) μg day ml^−1
same,AUC0-∞ mean (range),[5]; [15],2762 (1639–3827) μg day ml^−1
same,Cl mean (range),[5]; [15],169 (110–256) ml per day
same,Cmax mean (range),[5]; [15],150 (102–233) μg ml^−1
same,Vss mean (range),[5]; [15],4233 (2823–7058) ml
same,AUC0-last mean (range),[5]; [16],1749 (1214–3083) μg day ml^−1
same,AUC0-∞ mean (range),[5]; [16],2796 (1604–5116) μg day ml^−1
same,Cl mean (range),[5]; [16],329 (164–524) ml per day
same,Cmax mean (range),[5]; [16],255 (169–447) μg ml^−1
same,AUC0-last mean (range),[5]; [17],2390 (1733–3355) μg day ml^−1
same,AUC0-∞ mean (range),[5]; [17],3951 (2348–4980) μg day ml^−1
same,Cl mean (range),[5]; [17],282 (211–447) ml per day
same,Cmax mean (range),[5]; [17],301 (143–394) μg ml^−1
same,Vss mean (range),[5]; [17],5214 (2975–7036) ml
same,AUC0-last mean (range),[5]; [18],3500 (3010–4346) μg day ml^−1
same,AUC0-∞ mean (range),[5]; [18],6856 (4521–11426) μg day ml^−1
same,Cmax mean (range),[5]; [18],368 (253–463) μg ml^−1
same,Vss mean (range),[5]; [18],4672 (3023–6580) ml
same,Recommended phase II dose of pertuzumab in the combination,"[2]; in vivo, iv",420 mg
